Reference: the kinase profiling compilation of Christmann-Franck et al. (2016)

Legend:
Experiment in all cases: KINOMEscan competition binding
Details in all cases: compound 10.0 µM
FYN (human) = FYN (human) (UniProt P06241)
SIK3 (human) = SIK3 (human) (UniProt Q9Y2K2)
PDGFRB (human) = PDGFRB (human) (UniProt P09619)
ABL2 (human) = ABL2 (human) (UniProt P42684)
CASK (human) = CASK (human) (UniProt O14936)
DMPK (human) = DMPK (human) (UniProt Q09013)
SRPK3 (human) = SRPK3 (human) (UniProt Q9UPE1)
BLK (human) = BLK (human) (UniProt P51451)
Sequence of BLK (human) (P51451 whole entry, looked up): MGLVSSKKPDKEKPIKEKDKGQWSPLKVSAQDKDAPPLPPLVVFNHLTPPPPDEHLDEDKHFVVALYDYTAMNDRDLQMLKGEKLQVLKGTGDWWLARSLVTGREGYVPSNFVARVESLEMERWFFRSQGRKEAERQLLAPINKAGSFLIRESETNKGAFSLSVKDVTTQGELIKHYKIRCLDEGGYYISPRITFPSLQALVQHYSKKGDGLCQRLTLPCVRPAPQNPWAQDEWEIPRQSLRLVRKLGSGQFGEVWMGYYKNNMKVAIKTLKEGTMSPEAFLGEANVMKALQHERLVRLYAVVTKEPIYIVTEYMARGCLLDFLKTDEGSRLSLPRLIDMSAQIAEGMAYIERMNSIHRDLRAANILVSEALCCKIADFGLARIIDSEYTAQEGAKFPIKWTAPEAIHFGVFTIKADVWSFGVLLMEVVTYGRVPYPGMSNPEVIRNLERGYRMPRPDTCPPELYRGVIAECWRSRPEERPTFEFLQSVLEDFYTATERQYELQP

CAMK1G (human) = CAMK1G (human) (UniProt Q96NX5)
AKT1 (human) = AKT1 (human) (UniProt P31749)
MAP2K2 (human) = MAP2K2 (human) (UniProt P36507)
CSNK1E (human) = CSNK1E (human) (UniProt P49674)
MAP4K1 (human) = MAP4K1 (human) (UniProt Q92918)
EPHA7 (human) = EPHA7 (human) (UniProt Q15375)
EPHB3 (human) = EPHB3 (human) (UniProt P54753)
NTRK3 (human) = NTRK3 (human) (UniProt Q16288)
AAK1 (human) = AAK1 (human) (UniProt Q2M2I8)
ERBB3 (human) = ERBB3 (human) (UniProt P21860)
ACVR2A (human) = ACVR2A (human) (UniProt P27037)
Sequence of ACVR2A (human) (P27037 whole entry, looked up): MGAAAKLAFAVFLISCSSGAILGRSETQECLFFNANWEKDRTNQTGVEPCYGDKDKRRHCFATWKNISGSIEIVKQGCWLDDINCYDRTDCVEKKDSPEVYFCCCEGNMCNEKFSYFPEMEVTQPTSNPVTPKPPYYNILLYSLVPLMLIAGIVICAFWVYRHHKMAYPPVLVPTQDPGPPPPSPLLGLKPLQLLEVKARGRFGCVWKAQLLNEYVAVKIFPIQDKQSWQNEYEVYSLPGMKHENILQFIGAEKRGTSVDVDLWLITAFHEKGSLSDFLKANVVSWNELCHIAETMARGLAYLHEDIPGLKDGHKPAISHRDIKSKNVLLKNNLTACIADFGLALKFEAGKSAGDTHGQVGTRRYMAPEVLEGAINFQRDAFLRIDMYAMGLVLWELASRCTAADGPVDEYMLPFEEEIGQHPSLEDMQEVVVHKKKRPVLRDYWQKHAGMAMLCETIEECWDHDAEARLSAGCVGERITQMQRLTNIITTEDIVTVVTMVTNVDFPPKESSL

NTRK1 (human) = NTRK1 (human) (UniProt P04629)
PTK6 (human) = PTK6 (human) (UniProt Q13882)
CLK2 (human) = CLK2 (human) (UniProt P49760)
TEK (human) = TEK (human) (UniProt Q02763)
TSSK1B (human) = TSSK1B (human) (UniProt Q9BXA7)
PTK2 (human) = PTK2 (human) (UniProt Q05397)
DSTYK (human) = DSTYK (human) (UniProt Q6XUX3)
EPHA4 (human) = EPHA4 (human) (UniProt P54764)
CDK13 (human) = CDK13 (human) (UniProt Q14004)
Sequence of CDK13 (human) (Q14004 whole entry, looked up): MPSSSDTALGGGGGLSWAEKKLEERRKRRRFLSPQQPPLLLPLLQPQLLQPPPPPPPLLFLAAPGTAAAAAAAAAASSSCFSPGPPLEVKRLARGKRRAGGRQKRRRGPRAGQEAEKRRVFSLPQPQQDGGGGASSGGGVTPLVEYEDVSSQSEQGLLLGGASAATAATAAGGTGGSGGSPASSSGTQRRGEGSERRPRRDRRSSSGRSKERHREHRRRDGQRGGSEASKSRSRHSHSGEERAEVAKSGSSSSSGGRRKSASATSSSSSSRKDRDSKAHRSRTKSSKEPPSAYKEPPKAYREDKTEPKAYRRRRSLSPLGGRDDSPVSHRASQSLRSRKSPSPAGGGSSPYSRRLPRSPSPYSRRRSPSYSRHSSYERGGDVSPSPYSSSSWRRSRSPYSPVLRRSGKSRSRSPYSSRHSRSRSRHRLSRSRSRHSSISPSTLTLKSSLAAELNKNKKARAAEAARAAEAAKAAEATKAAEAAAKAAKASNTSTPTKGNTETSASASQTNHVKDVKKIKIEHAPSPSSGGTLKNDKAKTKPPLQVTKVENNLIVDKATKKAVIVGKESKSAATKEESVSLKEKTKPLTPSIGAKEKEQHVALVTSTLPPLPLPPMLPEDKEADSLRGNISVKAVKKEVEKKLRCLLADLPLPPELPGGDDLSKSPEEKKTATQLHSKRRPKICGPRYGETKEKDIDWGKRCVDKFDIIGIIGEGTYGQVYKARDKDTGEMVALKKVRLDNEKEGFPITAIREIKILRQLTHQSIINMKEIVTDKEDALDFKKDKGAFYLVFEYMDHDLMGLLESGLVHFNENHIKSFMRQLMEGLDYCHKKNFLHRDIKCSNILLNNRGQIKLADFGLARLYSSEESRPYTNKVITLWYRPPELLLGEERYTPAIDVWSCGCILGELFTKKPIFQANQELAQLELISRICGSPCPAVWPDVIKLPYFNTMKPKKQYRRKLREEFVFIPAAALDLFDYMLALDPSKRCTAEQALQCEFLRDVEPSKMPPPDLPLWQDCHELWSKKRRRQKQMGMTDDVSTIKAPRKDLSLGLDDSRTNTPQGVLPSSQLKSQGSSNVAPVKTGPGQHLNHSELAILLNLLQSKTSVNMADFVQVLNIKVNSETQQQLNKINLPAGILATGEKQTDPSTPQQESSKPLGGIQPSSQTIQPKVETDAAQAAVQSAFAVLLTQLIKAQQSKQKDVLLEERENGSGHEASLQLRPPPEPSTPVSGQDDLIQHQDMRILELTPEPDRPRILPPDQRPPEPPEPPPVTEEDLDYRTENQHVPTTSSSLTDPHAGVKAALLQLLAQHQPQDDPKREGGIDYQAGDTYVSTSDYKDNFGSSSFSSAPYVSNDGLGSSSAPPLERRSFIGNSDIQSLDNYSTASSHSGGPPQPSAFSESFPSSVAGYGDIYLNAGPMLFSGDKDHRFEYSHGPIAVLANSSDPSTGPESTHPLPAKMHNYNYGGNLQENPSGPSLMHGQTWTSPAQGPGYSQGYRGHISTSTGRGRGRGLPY

YSK4 (human) = YSK4 (human) (UniProt Q56UN5)
MAP4K2 (human) = MAP4K2 (human) (UniProt Q12851)
MARK2 (human) = MARK2 (human) (UniProt Q7KZI7)
Sequence of MARK2 (human) (Q7KZI7 whole entry, looked up): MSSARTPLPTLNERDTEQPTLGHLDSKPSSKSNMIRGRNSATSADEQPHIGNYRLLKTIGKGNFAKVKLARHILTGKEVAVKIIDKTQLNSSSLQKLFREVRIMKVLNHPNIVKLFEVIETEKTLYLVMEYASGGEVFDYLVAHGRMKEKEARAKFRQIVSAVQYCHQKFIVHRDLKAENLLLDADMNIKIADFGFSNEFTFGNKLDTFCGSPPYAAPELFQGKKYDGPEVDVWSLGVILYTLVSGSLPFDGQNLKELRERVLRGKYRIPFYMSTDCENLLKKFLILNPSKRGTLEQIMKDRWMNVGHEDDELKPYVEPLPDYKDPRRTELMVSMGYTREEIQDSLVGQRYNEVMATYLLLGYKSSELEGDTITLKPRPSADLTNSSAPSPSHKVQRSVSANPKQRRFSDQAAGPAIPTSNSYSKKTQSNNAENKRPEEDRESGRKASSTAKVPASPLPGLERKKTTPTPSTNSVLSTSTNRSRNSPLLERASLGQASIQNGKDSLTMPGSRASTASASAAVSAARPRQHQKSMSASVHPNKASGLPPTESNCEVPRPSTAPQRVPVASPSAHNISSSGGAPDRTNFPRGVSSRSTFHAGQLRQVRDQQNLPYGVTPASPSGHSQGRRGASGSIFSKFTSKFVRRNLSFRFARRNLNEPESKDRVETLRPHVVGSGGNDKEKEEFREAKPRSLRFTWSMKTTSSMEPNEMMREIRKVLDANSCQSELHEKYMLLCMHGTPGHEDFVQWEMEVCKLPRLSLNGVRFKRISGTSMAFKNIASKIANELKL

PIP4K2C (human) = PIP4K2C (human) (UniProt Q8TBX8)
[1] = target: TYK2 JH2 pseudokinase (human) (UniProt P29597)
SRPK2 (human) = SRPK2 (human) (UniProt P78362)
SNRK (human) = SNRK (human) (UniProt Q9NRH2)
Sequence of SNRK (human) (Q9NRH2 whole entry, looked up): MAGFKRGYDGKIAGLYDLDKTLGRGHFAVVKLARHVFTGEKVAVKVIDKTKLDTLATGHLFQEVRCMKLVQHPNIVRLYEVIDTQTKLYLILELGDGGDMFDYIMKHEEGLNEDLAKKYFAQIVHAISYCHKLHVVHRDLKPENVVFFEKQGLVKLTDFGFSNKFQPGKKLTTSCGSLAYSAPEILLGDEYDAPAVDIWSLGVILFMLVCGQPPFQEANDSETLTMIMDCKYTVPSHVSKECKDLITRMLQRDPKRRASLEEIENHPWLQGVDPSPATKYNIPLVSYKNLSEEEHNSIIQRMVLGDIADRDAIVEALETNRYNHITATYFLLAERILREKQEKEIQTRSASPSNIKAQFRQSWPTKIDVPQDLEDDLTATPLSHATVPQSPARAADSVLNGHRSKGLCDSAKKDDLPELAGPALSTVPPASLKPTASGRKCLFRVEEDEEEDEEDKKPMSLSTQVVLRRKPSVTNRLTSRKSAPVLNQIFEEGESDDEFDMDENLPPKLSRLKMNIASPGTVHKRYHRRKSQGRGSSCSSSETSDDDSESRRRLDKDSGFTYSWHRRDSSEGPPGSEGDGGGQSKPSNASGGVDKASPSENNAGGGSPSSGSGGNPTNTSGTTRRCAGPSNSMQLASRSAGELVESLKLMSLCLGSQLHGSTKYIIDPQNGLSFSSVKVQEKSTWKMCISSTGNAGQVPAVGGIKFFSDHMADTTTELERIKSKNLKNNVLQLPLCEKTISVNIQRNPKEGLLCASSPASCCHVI

MYO3B (human) = MYO3B (human) (UniProt Q8WXR4)
AURKB (human) = AURKB (human) (UniProt Q96GD4)
Sequence of AURKB (human) (Q96GD4 whole entry, looked up): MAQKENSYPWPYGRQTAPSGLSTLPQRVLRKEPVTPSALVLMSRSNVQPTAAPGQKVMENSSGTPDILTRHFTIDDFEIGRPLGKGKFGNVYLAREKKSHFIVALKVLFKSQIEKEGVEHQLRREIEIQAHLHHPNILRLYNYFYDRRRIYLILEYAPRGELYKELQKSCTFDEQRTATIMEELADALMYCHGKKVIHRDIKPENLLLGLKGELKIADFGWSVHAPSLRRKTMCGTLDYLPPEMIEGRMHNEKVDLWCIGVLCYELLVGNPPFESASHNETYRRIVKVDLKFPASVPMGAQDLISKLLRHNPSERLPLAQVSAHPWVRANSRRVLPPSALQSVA

RIOK2 (human) = RIOK2 (human) (UniProt Q9BVS4)
NEK3 (human) = NEK3 (human) (UniProt P51956)
DYRK1B (human) = DYRK1B (human) (UniProt Q9Y463)

Sequence of DMPK (human) (Q09013 whole entry, looked up): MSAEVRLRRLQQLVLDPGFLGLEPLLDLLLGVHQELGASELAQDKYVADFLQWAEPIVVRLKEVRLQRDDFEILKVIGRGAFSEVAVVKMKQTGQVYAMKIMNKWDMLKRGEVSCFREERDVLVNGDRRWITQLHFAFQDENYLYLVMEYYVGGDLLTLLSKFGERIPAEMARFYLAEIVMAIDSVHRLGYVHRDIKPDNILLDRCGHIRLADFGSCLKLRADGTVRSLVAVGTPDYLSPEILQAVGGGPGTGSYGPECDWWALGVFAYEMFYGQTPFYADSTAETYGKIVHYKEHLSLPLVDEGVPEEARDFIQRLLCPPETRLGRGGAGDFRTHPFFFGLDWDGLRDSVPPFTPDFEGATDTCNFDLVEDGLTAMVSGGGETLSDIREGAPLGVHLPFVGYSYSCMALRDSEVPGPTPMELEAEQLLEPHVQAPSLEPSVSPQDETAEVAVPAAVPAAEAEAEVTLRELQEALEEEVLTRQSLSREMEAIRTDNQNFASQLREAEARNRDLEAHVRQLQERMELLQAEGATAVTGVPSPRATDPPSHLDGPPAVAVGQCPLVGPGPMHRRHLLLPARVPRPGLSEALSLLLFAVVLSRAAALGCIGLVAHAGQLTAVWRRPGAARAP

Row | SMILES | kinase still bound, per cent of control (FYN (human)) [%] | kinase still bound, per cent of control (SIK3 (human)) [%] | kinase still bound, per cent of control (PDGFRB (human)) [%] | kinase still bound, per cent of control (ABL2 (human)) [%] | kinase still bound, per cent of control (CASK (human)) [%] | kinase still bound, per cent of control (DMPK (human)) [%] | kinase still bound, per cent of control (SRPK3 (human)) [%] | kinase still bound, per cent of control (BLK (human)) [%] | kinase still bound, per cent of control (CAMK1G (human)) [%] | kinase still bound, per cent of control (AKT1 (human)) [%] | kinase still bound, per cent of control (MAP2K2 (human)) [%] | kinase still bound, per cent of control (CSNK1E (human)) [%] | kinase still bound, per cent of control (MAP4K1 (human)) [%] | kinase still bound, per cent of control (EPHA7 (human)) [%] | kinase still bound, per cent of control (EPHB3 (human)) [%] | kinase still bound, per cent of control (NTRK3 (human)) [%] | kinase still bound, per cent of control (AAK1 (human)) [%] | kinase still bound, per cent of control (ERBB3 (human)) [%] | kinase still bound, per cent of control (ACVR2A (human)) [%] | kinase still bound, per cent of control (NTRK1 (human)) [%] | other results
1 | COc1ccc(N(C(=O)Oc2c(C)cccc2C)c2ccnc(Nc3ccc(N4CCN(C)CC4)cc3)n2)c(OC)c1 | 0 | 22 | 0 | 0.1 | 90 | 0.05 | 11 | 0.05 | 73 | 100 | 46 | 23 | 0.25 | 26 | 0 | 100 | 13 | 0 | 0.75 | 78 | kinase still bound, per cent of control (PTK6 (human)): 0%; kinase still bound, per cent of control (CLK2 (human)): 78%; kinase still bound, per cent of control (TEK (human)): 0.3%; kinase still bound, per cent of control (TSSK1B (human)): 87%; kinase still bound, per cent of control (PTK2 (human)): 32%; kinase still bound, per cent of control (DSTYK (human)): 49%; kinase still bound, per cent of control (EPHA4 (human)): 0%; kinase still bound, per cent of control (CDK13 (human)): 100%; kinase still bound, per cent of control (YSK4 (human)): 6%; kinase still bound, per cent of control (MAP4K2 (human)): 1.6%; kinase still bound, per cent of control (MARK2 (human)): 87%; kinase still bound, per cent of control (PIP4K2C (human)): 100%; kinase still bound, per cent of control [1]: 100%; kinase still bound, per cent of control (SRPK2 (human)): 42%; kinase still bound, per cent of control (SNRK (human)): 100%; kinase still bound, per cent of control (MYO3B (human)): 18%; kinase still bound, per cent of control (AURKB (human)): 18%; kinase still bound, per cent of control (RIOK2 (human)): 83%; kinase still bound, per cent of control (NEK3 (human)): 100%; kinase still bound, per cent of control (DYRK1B (human)): 68%
2 | O=C(Nc1cccc(Nc2ncc(Br)c(NCCc3cnc[nH]3)n2)c1)N1CCCC1 | 8.2 | 7 | 0 | 7.8 | 67 | 9.1 | 6.2 | 0.6 | 28 | 100 | 0.2 | 70 | 13 | 44 | 100 | 2.6 | 3.1 | 41 | 6.4 | 0.2 | kinase still bound, per cent of control (PTK6 (human)): 45%; kinase still bound, per cent of control (CLK2 (human)): 2.2%; kinase still bound, per cent of control (TEK (human)): 12%; kinase still bound, per cent of control (TSSK1B (human)): 48%; kinase still bound, per cent of control (PTK2 (human)): 0.2%; kinase still bound, per cent of control (DSTYK (human)): 36%; kinase still bound, per cent of control (EPHA4 (human)): 100%; kinase still bound, per cent of control (CDK13 (human)): 0.35%; kinase still bound, per cent of control (YSK4 (human)): 0%; kinase still bound, per cent of control (MAP4K2 (human)): 0.15%; kinase still bound, per cent of control (MARK2 (human)): 0.4%; kinase still bound, per cent of control (PIP4K2C (human)): 2%; kinase still bound, per cent of control [1]: 0%; kinase still bound, per cent of control (SRPK2 (human)): 5.4%; kinase still bound, per cent of control (SNRK (human)): 100%; kinase still bound, per cent of control (MYO3B (human)): 93%; kinase still bound, per cent of control (AURKB (human)): 0%; kinase still bound, per cent of control (RIOK2 (human)): 36%; kinase still bound, per cent of control (NEK3 (human)): 6.8%; kinase still bound, per cent of control (DYRK1B (human)): 35%
